Data reported in US20230158259A1, “PRODUCTS OF MANUFACTURE AND METHODS FOR TREATING, AMELIORATING OR PREVENTING MICROBIAL INFECTIONS” (TOPELIA AUST LIMITED, priority 2020, published 2023).

Experiments:
[1] = system: COVID-19 coronavirus; type: in vivo, human; conditions: group of elderly cruise travelers
[2] = system: coronavirus COVID-19; type: in vivo; conditions: after 4 days of osteltamivir alone, started at time of contact

SMILES	contraction of COVID-19 coronavirus [1]	test for the virus upon arrival home after the cruise [1]	blood result for COVID-19 virus [2]
CCN(CC)CCCC(C)Nc1ccnc2cc(Cl)ccc12 (stereo not drawn) [chloroquine]	None contract COVID-19 coronavirus	negative	–
CCOC(=O)C1=C[C@@H](OC(CC)CC)[C@H](NC(C)=O)[C@@H](N)C1 [osteltamivir, oseltamivir]	–	–	positive
